From ChEMBL document CHEMBL1140010, “Discovery of novel prostaglandin analogs of PGE2 as potent and selective EP2 and EP4 receptor agonists” (Bioorg Med Chem Lett, 2007)

What was measured:
[1] = target: T1, Prostaglandin E2 receptor EP4 subtype (Homo sapiens, UniProt P35408); experiment: Agonist activity at EP4 receptor expressed in HEK293 cells assessed as cAMP accumulation; type: functional, cell-based
[2] = target: T1, Prostaglandin E2 receptor EP4 subtype; experiment: Displacement of [3H]PGE2 from human EP4 receptor expressed in HEK293 cells; type: cell-based
[3] = target: T2, Prostaglandin E2 receptor EP2 subtype (Homo sapiens, UniProt P43116); experiment: Displacement of [3H]PGE2 from human EP2 receptor expressed in HEK293 cells; type: cell-based
T2 sequence (P43116 whole entry): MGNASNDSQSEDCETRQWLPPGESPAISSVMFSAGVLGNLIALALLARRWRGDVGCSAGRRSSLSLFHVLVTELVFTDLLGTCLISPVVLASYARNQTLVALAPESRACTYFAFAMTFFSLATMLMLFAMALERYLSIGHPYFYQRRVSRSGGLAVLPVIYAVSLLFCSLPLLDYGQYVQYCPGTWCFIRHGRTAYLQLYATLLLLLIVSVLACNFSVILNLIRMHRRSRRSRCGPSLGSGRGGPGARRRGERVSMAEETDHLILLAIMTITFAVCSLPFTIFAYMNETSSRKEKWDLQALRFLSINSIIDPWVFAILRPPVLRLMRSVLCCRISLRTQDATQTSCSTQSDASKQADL

[4] = target: T2, Prostaglandin E2 receptor EP2 subtype; experiment: Agonist activity at EP2 receptor expressed in HEK293 cells assessed as cAMP accumulation; type: functional, cell-based
[5] = target: T3, Prostaglandin E2 receptor EP1 subtype (Homo sapiens, UniProt P34995); experiment: Displacement of [3H]PGE2 from human EP1 receptor expressed in HEK293 cells; type: cell-based
T3 sequence (P34995 whole entry): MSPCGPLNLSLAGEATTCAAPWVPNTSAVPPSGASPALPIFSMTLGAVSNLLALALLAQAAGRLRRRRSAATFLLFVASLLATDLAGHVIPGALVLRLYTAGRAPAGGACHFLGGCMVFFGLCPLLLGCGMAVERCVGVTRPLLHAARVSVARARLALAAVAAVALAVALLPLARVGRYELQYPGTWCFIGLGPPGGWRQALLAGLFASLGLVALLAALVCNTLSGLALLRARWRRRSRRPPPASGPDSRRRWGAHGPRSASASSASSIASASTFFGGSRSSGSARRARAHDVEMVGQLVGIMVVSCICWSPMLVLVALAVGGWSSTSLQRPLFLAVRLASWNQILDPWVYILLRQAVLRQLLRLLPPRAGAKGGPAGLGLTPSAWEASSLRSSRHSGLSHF

[6] = target: T4, Prostaglandin E2 receptor EP3 subtype (Homo sapiens, UniProt P43115); experiment: Displacement of [3H]PGE2 from human EP3 receptor expressed in HEK293 cells; type: cell-based
T4 sequence (P43115 whole entry): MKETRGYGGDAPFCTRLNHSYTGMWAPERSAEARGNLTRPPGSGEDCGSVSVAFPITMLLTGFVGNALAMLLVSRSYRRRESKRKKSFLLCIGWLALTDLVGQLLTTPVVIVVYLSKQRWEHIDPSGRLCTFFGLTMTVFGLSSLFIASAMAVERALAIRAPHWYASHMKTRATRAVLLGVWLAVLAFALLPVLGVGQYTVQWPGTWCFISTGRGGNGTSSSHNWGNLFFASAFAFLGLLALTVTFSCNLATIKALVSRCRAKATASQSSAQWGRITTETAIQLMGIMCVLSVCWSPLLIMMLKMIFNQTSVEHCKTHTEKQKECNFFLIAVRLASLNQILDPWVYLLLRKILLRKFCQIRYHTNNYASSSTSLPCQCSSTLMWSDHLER

[7] = Half life in rat; type: ADME, organism-based; conditions: in vivo
[8] = Clearance in iv dosed rat; type: ADME, organism-based; conditions: in vivo
[9] = Bioavailability in rat at 1 mg/kg; type: ADME, organism-based; conditions: in vivo
Mus musculus = experiment: Induction of ovulation in orally dosed CD1 mouse; type: functional; conditions: CD1, po

T1 sequence (P35408 whole entry): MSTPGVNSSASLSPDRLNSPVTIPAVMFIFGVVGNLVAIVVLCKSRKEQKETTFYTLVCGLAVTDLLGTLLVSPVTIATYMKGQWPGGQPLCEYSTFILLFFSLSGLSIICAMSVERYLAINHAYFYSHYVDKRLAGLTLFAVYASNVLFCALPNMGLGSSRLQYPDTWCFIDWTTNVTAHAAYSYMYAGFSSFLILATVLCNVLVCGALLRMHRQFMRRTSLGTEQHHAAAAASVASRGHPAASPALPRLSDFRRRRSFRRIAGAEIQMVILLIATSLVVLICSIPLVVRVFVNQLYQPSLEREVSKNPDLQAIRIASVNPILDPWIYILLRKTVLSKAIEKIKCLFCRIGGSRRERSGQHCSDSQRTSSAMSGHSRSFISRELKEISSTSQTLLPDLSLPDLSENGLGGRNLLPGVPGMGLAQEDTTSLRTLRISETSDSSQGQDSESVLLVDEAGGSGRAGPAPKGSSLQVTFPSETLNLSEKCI

| SMILES | EC50 [1] [nM] | Ki [2] [nM] | Ki [3] [nM] | EC50 [4] [nM] | Ki [5] [nM] | Ki [6] [nM] | half-life [7] [h] | clearance [8] [mL/min/kg] | bioavailability [9] [%] | ED50 (Mus musculus) [mg/kg] |
| --- | --- | --- | --- | --- | --- | --- | --- | --- | --- | --- |
| CC/C(C)=C\C=C\[C@H]1CCC(=O)N1CCc1ccc(C(=O)O)cc1 | 3 | 24 | 173 |  |  |  |  |  |  |  |
| CCCC/C(C)=C/C=C/[C@H]1CCC(=O)N1CCc1ccc(C(=O)O)cc1 | 15 | 181 | 134 | 222 | 10000 | 10000 |  |  |  |  |
| CCCC[C@H](O)/C=C/[C@H]1CCC(=O)N1CCc1ccc(C(=O)O)cc1 | 0.002 | 2.5 | 126 | 16 | > 10000 | 9000 |  |  |  |  |
| CCCC/C=C(C)/C=C\[C@H]1CCC(=O)N1CCc1ccc(C(=O)O)cc1 |  | 443 | 802 |  |  |  |  |  |  |  |
| CC(C)=C/C=C/[C@H]1CCC(=O)N1CCc1ccc(C(=O)O)cc1 | 4 | 45 | 1850 |  |  |  |  |  |  |  |
| C/C(=C\C=C\[C@H]1CCC(=O)N1CCc1ccc(C(=O)O)cc1)c1ccccc1 | 0.5 | 29 | 749 | > 10000 |  |  |  |  |  |  |

Now those with a lower Ki [3], led by results:

| EC50 [1] [nM] | Ki [2] [nM] | Ki [3] [nM] | EC50 [4] [nM] | Ki [5] [nM] | Ki [6] [nM] | half-life [7] [h] | clearance [8] [mL/min/kg] | bioavailability [9] [%] | SMILES | ED50 (Mus musculus) [mg/kg] |
| --- | --- | --- | --- | --- | --- | --- | --- | --- | --- | --- |
| 2 | 25 | 88 | 197 |  |  |  |  |  | CCCC/C=C\C=C\[C@H]1CCC(=O)N1CCc1ccc(C(=O)O)cc1 |  |
| 0.1 | 4 | 60 | 35 | 10000 | 10000 | 7.7 | 2.5 | 72.6 | CCCC/C(C)=C\C=C\[C@H]1CCC(=O)N1CCc1ccc(C(=O)O)cc1 | 1 |
|  | 117 | 60 |  |  |  |  |  |  | C/C(=C/C=C/[C@H]1CCC(=O)N1CCc1ccc(C(=O)O)cc1)CC1CCCC1 |  |
|  |  | 29 |  |  |  |  |  |  | CCCC/C=C(C)/C=C/[C@H]1CCC(=O)N1CCc1ccc(C(=O)O)cc1 |  |
